Reference: paper PMC11111955, “Safety and efficacy evaluation of halicin as an effective drug for inhibiting intestinal infections” (Frontiers in Pharmacology, 2024)
In brackets after ≈: the same amount, converted by molar mass.

Columns and labels:
[1] = tested on: P. aeruginosa (ATCC 27853); assay: Minimum inhibitory concentration (MIC); type: cell-based, Pseudomonas aeruginosa
Description: The test strains were inoculated on the corresponding solid medium and incubated overnight at 37°C. A single colony was picked from the medium and inoculated into Luria Broth (LB), and then incubated overnight at 37°C with shaking at 220 rpm. The bacterial suspension was diluted to 0.5 McFarland turbidity with Mueller Hinton broth (MHB), and then dilute 100 times for later use. Halicin was added to the 96-well plate, and diluted it to concentrations of 128, 64, 32, 16, 8, 4, 2, 1, 0.5, 0.25, 0.125, and 0 μg/mL by gradient. The 96-well plate was incubated at 37°C for 16 h, followed by observing and recording the results. The MIC was determined as the concentration at which there was no visible colony growth was observed.

S. aureus (ATCC 29213) = assay: Multipassage resistance study (continuous induction); conditions: after 90 days of continuous exposure to 0.5 × MIC

Nc1nnc(Sc2ncc([N+](=O)[O-])s2)s1 [halicin]
MIC [1]: 64 µg/mL (≈ 245 µM)
MIC of SAR (S. aureus ATCC 29213 resistant strains) (S. aureus (ATCC 29213)): 64 µg/mL
